{"source": "patent US20240299334A1", "about": "“PHARMACEUTICAL COMPOSITION OF NAPHTHALENE DERIVATIVES AS MULTI-TARGETED THERAPEUTIC AGENTS FOR THE TREATMENT OF ALZHEIMER'S DISEASE” (CENTRO DE NEUROCIENCIAS DE CUBA, CNEURO, priority 2020, published 2024)", "key": {"[1]": {"tested_on": "seizures induced by icv administration of kainic acid", "assay": "Seizures induced by icv administration of kainic acid (Racine scale)", "assay_type": "in vivo, mice", "conditions": "compound 3 5 and 50 mg/kg oral, 1 h before KA icv; effect greater with 50 mg/kg", "description": "Young male OF-1 mice (20-25 g), supplied by the National Center for the Laboratory Animals Production (CENPALAB, Cuba) were used. The conditions of adaptation and maintenance of the animals before carrying out the experiment were similar to those developed in non-limiting Example 2. The mice were divided into 5 experimental groups (7 animals group) distributed in: a control group (PBS 2 μL, icv), a seizure control group (KA 2 μL, icv) and three groups treated orally by gastric cannulation with compound 3 at doses of 1, 5, 50 mg/kg […] and KA 2 μL, icv. Compound 3 was prepared as a suspension in 5% carboxymethylcellulose (CMC) vehicle. […]\nFor the icv administration of KA the mice were anesthetized with 685.71 mg/kg with chloral hydrate i.p. and placed on a dual manipulator. […] Stereotaxic coordinates for the lateral ventricle were precisely measured as: anteroposterior […], lateral±[…] and dorsoventral […] relative to bregma and ventral dura with the tooth bar at […]. A burr hole was made in the skull by automatic microperforation attached to an arm of the stereotaxic apparatus. […]\nStatistical Analysis All data are expressed as the mean±standard error of the mean (SEM), and were analyzed using a one-way analysis of variance followed by Turkey's post-hoc test. […]"}, "[2]": {"tested_on": "SH-SY5Y cells", "assay": "Neuroprotection against glutamate-induced excitotoxic damage (MTT)", "conditions": "7.5 and 15 μmol/L; 24 h pre-treatment, then 60 mmol/L glutamate 24 h; p<0.05", "procedure": "In addition, gentamicin (100 μg/mL) was added, then called complete medium (CM). […] The medium was changed every two days and the cells were subcultured every five days by trypsinization at a density of 4-5×10^6 cells/75 cm^2 flask for experimental work and/or subculture of a new generation of cells for later use.\nOnce the cell density was known, they were seeded in a 96-well culture plate (200 μL in each well) at a concentration of 80×10^4 cells/well.\nCell viability. MTT assays: Cell viability was measured through formazan blue products obtained from the enzymatic transformation of MTT (3-(4,5-dimethyl-2-thiazolyl)-2,5-diphenyl-2Htetrazoliumbromide) by mitochondrial dehydrogenases, which are active only in viable cells. […] Then 100 μL of isobutylalcohol (SDS 10%, 2-butanol 50%, 0.25 μL HCl 2 mmol/L) was added to each well to solubilize the formazan crystals, and the optical density of each well was measured before 30 minutes at 570 nm in a Clariostar spectrophotometer (BMG Labtech). The correction of the OD values was carried out at 690 nm. Three replications were carried out for each experiment. The results were expressed as the percentage of optical density of each experimental variant in relation to the Optical density obtained for the group of cells not treated with glutamate."}, "[3]": {"tested_on": "amnesia induced by the acute administration of scopolamine", "assay": "Object discrimination test, intranasal administration, acute ESC", "assay_type": "in vivo, mice", "conditions": "nasal formulation, single intranasal dose (74 μg/kg); ESC 1.5 mg/kg ip; vs control groups", "text": "Male C57BL/6 mice (20-25 g), supplied by the National Center for the Laboratory Animals Production (CENPALAB, Cuba) were used. The conditions of adaptation and maintenance of the animals before carrying out the experiment were similar to those developed in non-limiting Example 4.\nAt the end of the adaptation period, the animals were randomly distributed according to their body weights in four experimental groups of 10 animals each: two healthy control groups, one administered with a vehicle via the nasal route (G1) and the other with saline solution via. ip (G2); a sick control group, administered with nasal saline and then, with ESC dissolved in saline solution (1.5 mg/kg, ip) (G3) and a treated group, administered with compound 3 prepared according to the formulation of non-limiting Example 10 and after 15 minutes the ESC is administered (1.5 mg/kg, ip) (G4). This experiment was carried out in two experimental series under the same conditions described in order to study the effects of the nasal formulation of compound 3 in two behavioral models: Y-maze in the hidden arm modality and the object discrimination model. […]\nThe Object Recognition Test (ORT) is a commonly used behavioral test for the investigation of various aspects of learning and memory, particularly recognition memory, in rodent models of CNS disorders. […] The behavior of the animal was recorded using a video camera. […]"}}}
{"smiles": "CSC(=S)NCCNC(=O)CCC(=O)Nc1cccc2ccccc12", "note": "[compound 3, methyl(2-{[4-(1-naphthylamino)-4-oxobutanoyl]amino}ethyl)dithiocarbamate]", "values": [{"measurement": "total seizure score (0-120 minutes)", "setting": "[1]", "result": "significant decrease in the total score"}, {"measurement": "neuronal death generated by glutamate (MTT viability)", "setting": "[2]", "result": "significantly decreased"}, {"measurement": "discrimination index (DI) of the novel object", "setting": "[3]", "result": "No significant differences were observed in the discrimination index"}]}
